According to ChEMBL document CHEMBL4359892, “Discovery of novel indolylarylsulfones as potent HIV-1 NNRTIs via structure-guided scaffold morphing” (Eur J Med Chem, 2019):

How the values were obtained:
[1] = Cytotoxicity against human MT4 cells assessed as reduction in cell viability incubated for 5 days by MTT assay; assay type: cell-based
[2] = Acute toxicity in Kunming mouse assessed as effect on lethargy at 1000 mg/kg, ig administered as single dose and observed every day for 1 week; assay type: organism-based; conditions: in vivo, po, 168 h
[3] = tested on: Human immunodeficiency virus 1; test: Antiviral activity against drug resistant HIV-1 RES056 harboring reverse transcriptase K103N/Y181C double mutant infected in human MT4 cells assessed as reduction in virus-induced cytopathic effect incubated for 5 days by MTT assay; assay type: functional, organism-based; conditions: Human immunodeficiency virus 1, RES056, MT4, 120 h
[4] = tested on: Human immunodeficiency virus 1; test: Antiviral activity against drug resistant HIV-1 harboring reverse transcriptase Y181C mutant infected in human MT4 cells assessed as reduction in virus-induced cytopathic effect incubated for 5 days by MTT assay; assay type: functional, organism-based; conditions: Human immunodeficiency virus 1, MT4, 120 h
[5] = Sub-acute toxicity in Kunming mouse assessed as kidney damage at 50 mg/kg, po administered once every other day for 14 days measured on day 14 by HE-staining based assay; assay type: organism-based; conditions: in vivo, 336 h
[6] = Acute toxicity in Kunming mouse assessed as effect on clonic convulsion at 1000 mg/kg, ig administered as single dose and observed every day for 1 week; assay type: organism-based; conditions: in vivo, po, 168 h
[7] = Sub-acute toxicity in Kunming mouse assessed as effect on clonic convulsion at 50 mg/kg, po administered once every other day for 14 days; assay type: organism-based; conditions: in vivo, 336 h
[8] = Sub-acute toxicity in Kunming mouse assessed as increase in body weight at 50 mg/kg, po administered once every other day for 14 days; assay type: organism-based; conditions: in vivo, 336 h
[9] = Selectivity index, ratio of CC50 for human MT4 cells to EC50 for antiviral activity against HIV IIIB; assay type: toxicity; conditions: read-out: Ratio CC50/EC50
[10] = Acute toxicity in Kunming mouse assessed as effect on anorexia at 1000 mg/kg, ig administered as single dose and observed every day for 1 week; assay type: organism-based; conditions: in vivo, po, 168 h
[11] = Sub-acute toxicity in Kunming mouse assessed as spleen damage at 50 mg/kg, po administered once every other day for 14 days measured on day 14 by HE-staining based assay; assay type: organism-based; conditions: in vivo, 336 h
[12] = tested on: Human immunodeficiency virus 1; test: Antiviral activity against drug resistant HIV-1 harboring reverse transcriptase Y188L mutant infected in human MT4 cells assessed as reduction in virus-induced cytopathic effect incubated for 5 days by MTT assay; assay type: functional, organism-based; conditions: Human immunodeficiency virus 1, MT4, 120 h
[13] = tested on: Human immunodeficiency virus 1; test: Antiviral activity against HIV-1 3B infected in human MT4 cells assessed as reduction in virus-induced cytopathic effect incubated for 5 days by MTT assay; assay type: functional, organism-based; conditions: Human immunodeficiency virus 1, 3B, MT4, 120 h
[14] = Selectivity index, ratio of CC50 for human MT4 cells to EC50 for antiviral activity against HIV RES056; assay type: toxicity; conditions: read-out: Ratio CC50/EC50
[15] = Sub-acute toxicity in Kunming mouse assessed as effect on animal death at 50 mg/kg, po administered once every other day for 14 days; assay type: organism-based; conditions: in vivo, 336 h
[16] = Sub-acute toxicity in Kunming mouse assessed as effect on animal growth at 50 mg/kg, po administered once every other day for 14 days; assay type: organism-based; conditions: in vivo, 336 h
[17] = tested on: Human immunodeficiency virus 1; test: Antiviral activity against drug resistant HIV-1 harboring reverse transcriptase F227L/V106A double mutant infected in human MT4 cells assessed as reduction in virus-induced cytopathic effect incubated for 5 days by MTT assay; assay type: functional, organism-based; conditions: Human immunodeficiency virus 1, MT4, 120 h
[18] = Acute toxicity in Kunming mouse assessed as effect on ruffled fur at 1000 mg/kg, ig administered as single dose and observed every day for 1 week; assay type: organism-based; conditions: in vivo, po, 168 h
[19] = tested on: Human immunodeficiency virus 1; test: Antiviral activity against drug resistant HIV-1 harboring reverse transcriptase L100I mutant infected in human MT4 cells assessed as reduction in virus-induced cytopathic effect incubated for 5 days by MTT assay; assay type: functional, organism-based; conditions: Human immunodeficiency virus 1, MT4, 120 h
[20] = Sub-acute toxicity in Kunming mouse assessed as liver damage at 50 mg/kg, po administered once every other day for 14 days measured on day 14 by HE-staining based assay; assay type: organism-based; conditions: in vivo, 336 h
[21] = Sub-acute toxicity in Kunming mouse assessed as heart damage at 50 mg/kg, po administered once every other day for 14 days measured on day 14 by HE-staining based assay; assay type: organism-based; conditions: in vivo, 336 h
[22] = Acute toxicity in Kunming mouse assessed as effect on animal death at 1000 mg/kg, ig administered as single dose and observed every day for 1 week; assay type: organism-based; conditions: in vivo, po, 168 h
[23] = tested on: Human immunodeficiency virus 1; test: Antiviral activity against drug resistant HIV-1 harboring reverse transcriptase E138K mutant infected in human MT4 cells assessed as reduction in virus-induced cytopathic effect incubated for 5 days by MTT assay; assay type: functional, organism-based; conditions: Human immunodeficiency virus 1, MT4, 120 h
[24] = Sub-acute toxicity in Kunming mouse assessed as effect on lethargy at 50 mg/kg, po administered once every other day for 14 days; assay type: organism-based; conditions: in vivo, 336 h
[25] = Sub-acute toxicity in Kunming mouse assessed as effect on ruffled fur at 50 mg/kg, po administered once every other day for 14 days; assay type: organism-based; conditions: in vivo, 336 h
[26] = Acute toxicity in Kunming mouse assessed as effect on animal growth at 1000 mg/kg, ig administered as single dose and observed every day for 1 week; assay type: organism-based; conditions: in vivo, po, 168 h
[27] = tested on: Human immunodeficiency virus 1; test: Antiviral activity against drug resistant HIV-1 harboring reverse transcriptase K103N mutant infected in human MT4 cells assessed as reduction in virus-induced cytopathic effect incubated for 5 days by MTT assay; assay type: functional, organism-based; conditions: Human immunodeficiency virus 1, MT4, 120 h
[28] = Acute toxicity in Kunming mouse assessed as effect on body weight gain at 1000 mg/kg, ig administered as single dose and observed every day for 1 week; assay type: organism-based; conditions: in vivo, po, 168 h
[29] = Sub-acute toxicity in Kunming mouse assessed as lungs damage at 50 mg/kg, po administered once every other day for 14 days measured on day 14 by HE-staining based assay; assay type: organism-based; conditions: in vivo, 336 h
[30] = Sub-acute toxicity in Kunming mouse assessed as effect on anorexia at 50 mg/kg, po administered once every other day for 14 days; assay type: organism-based; conditions: in vivo, 336 h

For `Cc1cc(C)cc(S(=O)(=O)c2c(C(=O)N[C@H]3CCN(CC(N)=O)C3)[nH]c3ccc(Cl)cc23)c1`, the CC50 at 120 h [1] was 28100 nM, the Activity [2] was “Non-Toxic” and the EC50 [3] was over 28100 nM. The EC50 [4] was 96 nM, the Activity [5] was “Non-Toxic” and the Activity [6] was “Non-Toxic”. The Activity [7] was “Non-Toxic”, the Activity [8] was “Non-Toxic” and the selectivity ratio [9] was 2880. The Activity [10] was “Non-Toxic”, the Activity [11] was “Non-Toxic” and the EC50 [12] was 310 nM. The EC50 [13] was 9.8 nM, the selectivity ratio [14] was under 1 and the Activity [15] was “Non-Toxic”. For the same compound, the Activity [16] was “Non-Toxic”, the EC50 [17] was 94 nM and the Activity [18] was “Non-Toxic”. For the same compound, the EC50 [19] was 11 nM, the Activity [20] was “Non-Toxic” and the Activity [21] was “Non-Toxic”. The Activity [22] was “Non-Toxic”, the EC50 [23] was 14 nM and the Activity [24] was “Non-Toxic”. For the same compound, the Activity [25] was “Non-Toxic”, the Activity [26] was “Non-Toxic” and the EC50 [27] was 25 nM. For the same compound, the Activity [28] was “Non-Toxic”, the Activity [29] was “Non-Toxic” and the Activity [30] was “Non-Toxic”.
